Like-named read-outs stand apart in the source and are kept apart here.
Assays:
[1] = CAC determination by pyrene excitation method; format: physicochemical
Experimental: (§1) L-Mito-FFYp consists of a tripeptide backbone Phe–Phe–Tyrp (Tyrp stands for tyrosine phosphate) in which pyrene butyric acid is capped on the N-terminus to promote the self-assembly and TPP is conjugated to the amine group of the lysine side chain for targeting the mitochondria (Fig. S1, ESI ^†). The CAC of L-Mito-FFYp was determined to be 12 μM via pyrene excitation method (Fig. 1A). […] The EIMT of L-Mito-FFYp was investigated by treating it with ALP enzyme. After 24 h incubation (37 °C), fibers having a diameter of ca. 10 nm were observed via transmission electron microscopy (TEM) analysis (Fig. 1D). Specifically, micelles with a diameter of 53 nm were converted into fibers with a diameter of 12.9 nm, most likely by the action of the ALP enzyme. To confirm that the fiber structure corresponded to L-Mito-FFY, L-Mito-FFY was separately synthesized and purified (Fig. S2A and B, ESI ^†). It was supposed after the phosphate group cleaved from the ALP enzyme. The L-tyrosine phosphate was replaced with L-tyrosine. Its self-assembled morphology was analyzed via TEM. Similar fibers with a diameter of 10 nm were observed (Fig. S3, ESI ^†), confirming that ALP transforms the L-Mito-FFYp micelles into L-Mito-FFY fibers.
Fig. 1 (A) CAC determination of L-Mito-FFYp using pyrene excitation method. […]

[2] = tested on: Saos-2 cell line; assay: Cellular ROS by dihydroethidium (DHE) staining, confocal microscopy and flow cytometry; format: cell-based; details: Saos-2, DHE staining, 20 μM
[3] = Surface charge (zeta potential) analysis; format: physicochemical; details: 15 μM solution (over the CAC value)
[4] = tested on: SK-BR-3 cell line; format: cell-based; details: 48 h, 10 μM
Experimental: (§2) To confirm that the cytotoxicity of L-Mito-FFYp stems from its selectivity toward ALP and the consequent morphology transformation, the cytotoxicity was evaluated toward Saos-2, HeLa, SK-BR-3, and NIH-3T3 cell lines. SK-BR-3 and NIH-3T3 cell lines are known to express fewer ALP enzymes. […] And the cytotoxicity of L-Mito-FFYp in the Saos-2 cell line was analyzed in the presence and absence of endocytosis inhibitors such as chlorpromazine (clathrin), sucrose (macropinocytosis), and M-β-cyclodextrin (caveolin). […] To further verify the important role of the phosphate moiety, we synthesized L-Mito-FFY compound (Fig. S2, ESI ^†). […] After phosphoric acid was cleaved by the ALP enzyme overexpressed in the Saos-2 cell membrane, Mito-FFY was accumulated in the mitochondria. As a result, apoptosis occurred due to mitochondrial membrane disruption induced by self-assembled fibers inside the mitochondria.
(§3) Fig. 3 (A) Cell viability analysis of L-Mito-FFYp in Saos-2, HeLa, SK-BR-3 and NIH 3T3 cell lines for an incubation time of 48 h. (B) Cell viability analysis of L-Mito-FFYp in the presence of different endocytosis inhibitos. […] (E) Western blotting analysis showing the release of cytochrome C after treatment with L-Mito-FFYp. TEXT PRINTED IN THE PICTURE: (D) Mito-FFYp: Q1 0.91; Q2 26.4; Q3 8.97; Q4 63.7 DOUBTS OF THE COPYIST ABOUT THIS PICTURE: Mito-FFYp, panel D, Q1: very small blurred print, 0.91 uncertain (could be 0.51 or 0.61) / Mito-FFYp, panel D, Q2: very small blurred print, 26.4 uncertain (6 could be 5 or 8) / Mito-FFYp, panel D, Q3: very small blurred print, 8.97 uncertain (could be 6.97 or 8.57) / Mito-FFYp, panel D, Q4: very small blurred print, 63.7 uncertain (could be 65.7 or 83.7) / Panel D, Control plot also prints quadrant numbers (about Q1 0.090, Q2 0.24, Q3 0.078, Q4 99.6). […]
(§4) M. T. Jeena,‡a Seongeon Jin,‡ a Batakrishna Jana,a and Ja-Hyoung Ryu,*a Materials. All peptides were synthesized manually on a […] scale. The products were purified by high-performance liquid chromatography (HPLC, Agilent Technologies, USA) with a C-18 reverse column in ACN/water mixture. […]

[5] = tested on: Saos-2 cell line; format: cell-based
Experimental: as §2, §3, §4

[6] = tested on: HeLa cells; assay: Cell viability, MTT assay; format: cell-based; details: 48 h incubation, read-out: Concentration at which 50% viability was observed
Experimental: as §2
(§5) Fig. 3 (A) Cell viability analysis of L-Mito-FFYp in Saos-2, HeLa, SK-BR-3 and NIH 3T3 cell lines for an incubation time of 48 h. (B) Cell viability analysis of L-Mito-FFYp in the presence of different endocytosis inhibitos. […] (E) Western blotting analysis showing the release of cytochrome C after treatment with L-Mito-FFYp. […]

[7] = tested on: NIH-3T3 cell line; assay: Cell viability, MTT assay; format: cell-based; details: NIH 3T3, 10 μM, 48 h incubation
Experimental: as §2, §5

[8] = TEM analysis of self-assembled morphology, with and without ALP enzyme; format: physicochemical; details: 15 μM, before ALP treatment
Experimental: as §1, with “Similar fibers with a diameter of 10 nm were observed (Fig. S3, ESI ^†), confirming that ALP transforms the L-Mito-FFYp micelles into L-Mito-FFY fibers.” left out
(§6) Imaging of apoptosis/necrosis-dependent cell death. […] The cells were then washed gently, the medium was replaced with DMEM medium, and the cells were analyzed using an LSM780 laser confocal scanning microscope. […]

[9] = Cell viability in the presence of ALP inhibitor NBT-BCIP; format: cell-based; details: co-treatment with NBT-BCIP solution
Experimental: as §2
Figure S14. Cell viability analysis of Mito-FFYp in the presence of ALP inhibitor, NBT-BCIP.
(1 picture or pasted object on this page, not shown here)

[10] = tested on: Saos-2 cells; assay: FITC-annexin V/PI assay (confocal imaging and FACS) for mechanism of cell death; format: cell-based; details: FITC-annexin V/PI staining
Experimental: as §2
Fig. 3 (A) Cell viability analysis of L-Mito-FFYp in Saos-2, HeLa, SK-BR-3 and NIH 3T3 cell lines for an incubation time of 48 h. […] They are left out because Control is not a substance, and the digits are not readable with certainty […]
as §6

[11] = tested on: cytochrome C; assay: Western blotting of cytochrome C release; format: cell-based; details: western blotting after treatment
Experimental: as §2
Fig. 3 (A) Cell viability analysis of L-Mito-FFYp in Saos-2, HeLa, SK-BR-3 and NIH 3T3 cell lines for an incubation time of 48 h. (B) Cell viability analysis of L-Mito-FFYp in the presence of different endocytosis inhibitos. […] (E) Western blotting analysis showing the release of cytochrome C after treatment with L-Mito-FFYp. […] They are left out because Control is not a substance, and the digits are not readable with certainty

NC(=O)[C@H](CCCCNCCCCCC[P+](c1ccccc1)(c1ccccc1)c1ccccc1)NC(=O)[C@H](Cc1ccc(OP(=O)(O)O)cc1)NC(=O)[C@H](Cc1ccccc1)NC(=O)[C@H](Cc1ccccc1)NC(=O)CCCc1ccc2ccc3cccc4ccc1c2c34 [L-Mito-FFYp]
Critical Aggregation Concentration (CAC) [1]: 12 µM | Cellular ROS [2]: overproduction of ROS | Surface charge (zeta potential) [3]: −25.6 ± 0.32 mV | Cell viability [4]: ~90% | IC50 ([5]; Saos-2, 48 h incubation, MTT, read-out: Concentration at which 50% viability was observed): ~5 µM | IC50 ([5]; human): ~10 µM | IC50 [6]: ~5 µM | Cell viability [7]: ~90% | Micelle diameter [8]: 53 nm | Toxicity in the presence of ALP inhibitor [9]: remarkably reduced | Mechanism of cell death [10]: late apoptosis | Cytochrome C release from the mitochondria [11]: released
